Patent publication US5840859A, “(Aminostyryl)pyridinium compounds for radiolabelling cell membranes” (Research Corporation Technologies, Inc., priority 1996, dated 1998)
Each block holds one compound with its values, some of them ahead of it.

What was measured:
mixed leukocytes = assay: Mixed leukocyte labeling yield; assay type: cell-based, canine; conditions: for Mixed leukocyte labeling yield: 125I labeled, average, 10-30 μCi, 250-325 Ci/mmol
Method: Labeling of mixed leukocytes (harvested from 20 mL canine blood) with 4a-d was performed using five different procedures: 1) labeling in Diluent C (a commercial non-ionic cell labeling media developed by Zynaxis Co. that is not approved for human use) after two saline washes of the cell pellet; 2) labeling in saline after two saline washes of the cell pellet; 3) labeling in saline with no saline washes of the cell pellet; 4 and 5) labeling in ether 10% or 100% platelet poor plasma (PPP).
Unwashed mixed leukocytes in 1.5 mL 10% PPP in saline were also tested. […]
This was evaporated to dryness under vacuum in a speed vac and reconstituted into 30 ul ethanol. Forty milliliters of canine blood was drawn into a 60 mL syringe containing 6.5 mL acetate-citrate-dextrose solution. To this was added 5.5 mL 2% methyl cellulose in saline. The contents of the syringe were gently mixed by several inversions of the syringe and the syringe placed vertically, needle end up, for 45 minutes to allow the red blood cells to settle. The plasma was drawn off and placed into a 50 mL Falcon tube. The tube was centrifuged at 1100 rpm for 15 minutes to pellet the leukocytes. The plasma was removed and the cells resuspended in 2 mL saline. In a 1 mL plastic microcentrifuge was placed 0.5 mL saline. […] The cells were then underlayered with 7.5 mL of platelet poor plasma and centrifuged at 1600 rpm for seven minutes to pellet the cells. The supernatant was removed, the cells resuspended in 10 mL saline, and transferred to a new tube. The supernatant, cells, and labeling tube were counted for radioactivity. The cells were centrifuged again at 1600 rpm for 7 minutes, the supernatant removed, and the cells resuspended.
A sample of canine blood (20 mL) was drawn into a 60 mL syringe containing 3 mL acetate-citrate-dextrose (ACD) solution. To this was added 3 mL 2% methyl cellulose in saline. The contents of the syringe were gently mixed by several inversions, and the syringe was then placed vertically, needle end up, for 45 min to allow the red blood cells to settle. The plasma was drawn off and transferred to a 50 mL Falcon tube. The tube was centrifuged at 1100 rpm for 15 min to pellet the leukocytes. The plasma was removed and the cells resuspended in 10 mL saline. The tube was centrifuged at 1600 rpm for 7 min, the supernatant removed, and the cells resuspended in 10 mL saline and recentrifuged at 1600 rpm for 7 min. The supernatant was then removed and the cells resuspended in 2 mL Diluent C. Into a 1 mL plastic microcentrifuge tube was placed 0.5 mL Diluent C. […] The indium complex in Diluent C was immediately added to the leukocytes and the cells were placed vertically on a Nutator rocking apparatus and rocked gently for 30 min at room temperature. The cells were then underlayered with 5 mL of platelet poor plasma and centrifuged at 1600 rpm for 7 min to pellet the cells. The supernatant was removed, the cells resuspended in 10 mL saline, and transferred to a new tube. The supernatant, cells, and labeling tube were counted for radioactivity. The cells were centrifuged again at 1600 rpm for 7 min, the supernatant removed, and the cells resuspended.

mononuclear leukocytes = assay: Mononuclear leukocyte labeling yield; assay type: cell-based; conditions: harvested from 20 mL canine blood via isolymph method
Method: Using ^125 I-4b and ^131 I-4b, mononuclear leukocytes harvested from 20 mL canine blood via the isolymph method (sodium diatrizoste and Ficol 400, d=1.077) were labeled in 77% and 85% yields, respectively. Thus, the present compounds can label both lymphocytes and mixed leukocytes in high yields, and that the latter can be used to image sites of focal inflammation.

[1] = test system: sodium urate induced abscess in the stifle joint; assay: Localization of labeled leukocytes in dogs having a sodium urate induced abscess in the stifle joint (aspirate, gamma camera images)
Description: Mixed leukocytes labeled with 4b and ^111 In-oxine labeled mixed leukocytes were compared in dogs having a sodium urate-induced inflammation in the left stifle joint. […]

[2] = test system: inflammatory lesions / abscesses; conditions: cited from earlier work
[3] = Table 3 Experiment 3, 4b 500 Ci/mmol, Diluent C after 2 × 10 mL saline washes
[4] = Table 3 Experiment 4, 4b 1000 Ci/mmol, Diluent C after 2 × 10 mL saline washes
[5] = Table 3 Experiment 5, 4b 800 Ci/mmol, saline after 2 × 10 mL saline washes
[6] = Table 3 Experiment 6, 4b 800 Ci/mmol, saline after 2 × 10 mL saline washes
[7] = 48 hour, estimated from region of interest (ROI) measurements
[8] = Experiment 3, injected 88 μCi 131I-4b, 331 μCi 111In-oxine, Diluent C
[9] = Experiment 4, injected 255 μCi 131I-4b, 288 μCi 111In-oxine, Diluent C
[10] = Experiment 5, injected 272 μCi 131I-4b, 326 μCi 111In-oxine, saline
[11] = Experiment 6, injected 211 μCi 131I-4b, 378 μCi 111In-oxine, saline
[12] = labeled leukocytes, McAfee et al.

Compound: CCCCCCCCN(CCCCCCCC)c1ccc(/C=C/c2cc[n+](C/C=C/[125I])cc2)cc1 [Compound 4c]
Mixed leukocyte labeling yield (mixed leukocytes; Diluent C): 52%
Mixed leukocyte labeling yield (mixed leukocytes; saline, 2 washes of pellet): 32%
Mixed leukocyte labeling yield (mixed leukocytes; saline, no washes of pellet): 6%
Leukocyte labeling (in words) (mixed leukocytes; five labeling procedures compared): only labeled leukocytes in useful yields using Diluent C

lung sequestration of labeled leukocytes ([1]; dog, in vivo): No lung sequestration was observed
percent injected dose per organ, liver ([1]; dog, in vivo, 2880 min): 8.7%
Compound: CCCCCCN(CCCCCC)c1ccc(/C=C/c2cc[n+](C/C=C/[131I])cc2)cc1 [^131 I-4b, 3-[4-[2-(N,N-dihexylamino)phenyl]ethyenyl]pyridino-E-1-[^131 I]-iodo-propene]
Mononuclear leukocyte labeling yield (mononuclear leukocytes): 85%
131I bound to the cells (mixed leukocytes; Example 10, of 372 uCi added, saline, 20 min): 340 uCi
131I bound to the cells (labeling yield) (mixed leukocytes; Example 10, saline, 372 uCi, 20 min, room temperature, after second centrifugation): 91%
Labeling Yield (mixed leukocytes; [3]): 88%
Labeling Yield (mixed leukocytes; [4]): 88%
Labeling Yield (mixed leukocytes; [5]): 86%
Labeling Yield (mixed leukocytes; [6]): 87%
percent injected dose per organ, abscess [1, 7]: 1.15%
131I/111In or 125I/111In in aspirate ([1]; Experiment 3): 2.6
% aspirate radioactivity cell bound ([1]; Experiment 3): 93%
abscess to contralateral knee ratio ([1]; Experiment 3, 3 hour): 3.7
abscess to surrounding tissue ratio ([1]; Experiment 3, 3 hour): 2.3
% inj. dose in abscess aspirate [1, 8]: 0.050%
131I/111In or 125I/111In in aspirate ([1]; Experiment 4): 3.5
% aspirate radioactivity cell bound ([1]; Experiment 4): 97%
abscess to contralateral knee ratio ([1]; Experiment 4, 48 hours): 9.1
abscess to surrounding tissue ratio ([1]; Experiment 4, 48 hours): 6.3
% inj. dose in abscess aspirate [1, 9]: 0.194%
131I/111In or 125I/111In in aspirate ([1]; Experiment 5): 4.3
% aspirate radioactivity cell bound ([1]; Experiment 5): 95%
% inj. dose in abscess aspirate [1, 10]: 0.092%
131I/111In or 125I/111In in aspirate ([1]; Experiment 6): 22
% aspirate radioactivity cell bound ([1]; Experiment 6): 94%
% inj. dose in abscess aspirate [1, 11]: 0.355%
localization of labeled leukocytes in induced inflammatory site/abscess, compared with 111In-oxine (111In-labeled) leukocytes ([1]; sodium urate induced abscess, dog): higher degree of localization

Compound: C/C(=N\[O-])[C@@H](C)[N-]CC(C)(C)C[N-][C@H](C)/C(C)=N/O.[O]=[99Tc+3] (racemic) [^99m Tc-HMPAO]
stability compared with the 111In radiopharmaceuticals ([2]; in vitro and in vivo): less stable both in vitro and in vivo
nonspecific biodistribution ([2]; labeled leukocytes, in vivo): diffuse abdominal radioactivity, gall bladder uptake
target to background ratios compared with cells labeled with 111In-oxine [2, 12]: lower target to background ratios
uptake in abscesses compared with cells labeled with 111In-oxine [2, 12]: lower absolute uptake in abscesses
renal excretion of unidentified polar species containing 99mTc, earliest time ([2]; printed as early as three hours post injection): three hours post injection

Compound: [In+3].[O-]c1cccc2cccnc12.[O-]c1cccc2cccnc12.[O-]c1cccc2cccnc12 [^111 In-oxine, reference compound]
absolute inflammatory lesion uptake ([2]; compared with all agents yet tested): highest absolute inflammatory lesion uptake of all agents yet tested
Labeling Yield (mixed leukocytes; Table 3 Experiment 1, 4b 250 Ci/mmol, Diluent C after 2 × 10 mL saline washes): 88%
Labeling Yield (mixed leukocytes; Table 3 Experiment 2, 4b footnotes a,c (250 / 1000 Ci/mmol)): 91%
Labeling Yield (mixed leukocytes; [3]): 85%
Labeling Yield (mixed leukocytes; [4]): 94%
Labeling Yield (mixed leukocytes; [5]): 89%
Labeling Yield (mixed leukocytes; [6]): 87%
abscess visibility in gamma camera images ([1]; 3 hours): the abscess was visible at 3 hours
percent injected dose per organ, liver [1, 7]: 13.1%
% aspirate radioactivity cell bound ([1]; Experiment 1): 95%
% inj. dose in abscess aspirate ([1]; Experiment 1, injected 84 μCi 125I-4b, 500 μCi 111In-oxine, Diluent C): 0.383%
% aspirate radioactivity cell bound ([1]; Experiment 2): 98%
% inj. dose in abscess aspirate ([1]; Experiment 2, injected 66 μCi 125I-4b, 312 μCi 111In-oxine): 0.088%
% aspirate radioactivity cell bound ([1]; Experiment 3): 79%
abscess to contralateral knee ratio ([1]; Experiment 3, 3 hour): 2.7
abscess to surrounding tissue ratio ([1]; Experiment 3, 3 hour): 2.0
% inj. dose in abscess aspirate [1, 8]: 0.019%
% aspirate radioactivity cell bound ([1]; Experiment 4): 88%
abscess to contralateral knee ratio ([1]; Experiment 4, 48 hours): 4.0
abscess to surrounding tissue ratio ([1]; Experiment 4, 48 hours): 2.6
% inj. dose in abscess aspirate [1, 9]: 0.056%
% aspirate radioactivity cell bound ([1]; Experiment 5): 92%
% inj. dose in abscess aspirate [1, 10]: 0.021%
131I/111In or 125I/111In in aspirate ([1]; Experiment 6): 22
% aspirate radioactivity cell bound ([1]; Experiment 6): 78%
% inj. dose in abscess aspirate [1, 11]: 0.016%
gamma camera images, comparison of 4b and 111In-oxine ([1]; between 1 hour and 3 hours): comparable

Compound: indium-111 complex of N-[methyl(2-(Di-6-ASP-acetamido)ethyl)carbamide]-trans-1,2-diaminocyclohexane-N,N',N'-triacetic acid [^111 In-18]
Mixed leukocyte labeling yield, 111In complexes (mixed leukocytes; Diluent C): 21%

Compound: indium-111 complex of N-[methyl(2-(Di-4-ASP-propylthiourea)ethyl)carbamide]-trans-1,2-diaminocyclohexane-N,N',N'-triacetic acid [^111 In-19a]
Mixed leukocyte labeling yield, 111In complexes (mixed leukocytes; Diluent C): 4%

Compound: indium-111 complex of N-[methyl(2-(Di-10-ASP-propylthiourea)ethyl)carbamide]-trans-1,2-diaminocyclohexane-N,N',N'-triacetic acid [^111 In-19b]
Mixed leukocyte labeling yield, 111In complexes (mixed leukocytes; Diluent C): 84%
111In bound to the cells (labeling yield) (mixed leukocytes; Example 15, Diluent C, 44.4 μCi, 30 min, room temperature): 84%
111In bound to the cells (mixed leukocytes; Example 15, of 44.4 μCi added): 37.4 μCi
